Reference: publication PMC4266452, “Prediction of Thorough QT study results using action potential simulations based on ion channel screens” (Journal of Pharmacological and Toxicological Methods, 2014)
Values joined by “and” are separate entries in the source; they are usually repeats but may differ in a detail not shown here. Identical values can stand only once. Like-named read-outs stand apart in the source and are kept apart here.

How the values were obtained:
[1] = tested on: QT interval on the body surface ECG; details: ref Gintant (2011), cited from earlier work
Kv4.3/KChIP2.2 = molecular target: T1, Kv4.3/KChIP2.2 (Homo sapiens, UniProt Q9UK17); experiment: IonWorks Quattro Kv4.3/KChIP2.2 screen (AstraZeneca, Q); format: cell-based; details: IonWorks Quattro, −log10 of IC50 in Molar, Hill n = 1
T1 sequence (Q9UK17 1-655): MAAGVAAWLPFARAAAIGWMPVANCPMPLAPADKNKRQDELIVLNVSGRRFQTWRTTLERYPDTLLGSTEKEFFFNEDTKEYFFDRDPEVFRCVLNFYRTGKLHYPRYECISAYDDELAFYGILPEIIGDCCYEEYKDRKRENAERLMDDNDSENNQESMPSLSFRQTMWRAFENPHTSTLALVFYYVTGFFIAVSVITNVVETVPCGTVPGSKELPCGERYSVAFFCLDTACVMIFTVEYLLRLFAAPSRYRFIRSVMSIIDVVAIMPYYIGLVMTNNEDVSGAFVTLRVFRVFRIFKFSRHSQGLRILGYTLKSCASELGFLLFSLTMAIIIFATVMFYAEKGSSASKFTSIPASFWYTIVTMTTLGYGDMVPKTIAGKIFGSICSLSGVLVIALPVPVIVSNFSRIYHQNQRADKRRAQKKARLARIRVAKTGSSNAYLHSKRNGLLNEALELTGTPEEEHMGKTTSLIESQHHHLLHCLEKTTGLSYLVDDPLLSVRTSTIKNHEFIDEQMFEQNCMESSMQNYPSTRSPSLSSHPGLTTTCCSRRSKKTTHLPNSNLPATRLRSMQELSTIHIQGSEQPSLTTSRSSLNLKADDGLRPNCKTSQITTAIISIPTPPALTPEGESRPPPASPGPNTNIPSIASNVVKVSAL
T1 sequence (Q9NS61 1-270 partner): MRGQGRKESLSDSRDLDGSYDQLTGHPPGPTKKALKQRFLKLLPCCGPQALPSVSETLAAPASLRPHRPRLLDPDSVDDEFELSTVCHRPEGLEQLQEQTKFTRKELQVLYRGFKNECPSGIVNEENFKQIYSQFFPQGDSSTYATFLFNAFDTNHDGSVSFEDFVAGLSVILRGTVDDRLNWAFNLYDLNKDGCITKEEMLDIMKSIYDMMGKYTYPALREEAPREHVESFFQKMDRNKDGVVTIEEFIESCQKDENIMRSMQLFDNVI

[2] = Plasma concentration (Cmax) during the TQT study, total and calculated free; format: in vivo, human
[3] = ref Gintant (2011), cited from earlier work
[4] = ref Gintant (2011); cited from earlier work
CaV1.2 = CaV1.2 (Homo sapiens, UniProt Q13936); experiment: IonWorks Quattro CaV1.2 screen (AstraZeneca, Q)
NaV1.5 [5] = molecular target: T2, NaV1.5 (Homo sapiens, UniProt Q14524); experiment: IonWorks Quattro NaV1.5 screen (AstraZeneca, Q)
T2 sequence (Q14524 whole entry): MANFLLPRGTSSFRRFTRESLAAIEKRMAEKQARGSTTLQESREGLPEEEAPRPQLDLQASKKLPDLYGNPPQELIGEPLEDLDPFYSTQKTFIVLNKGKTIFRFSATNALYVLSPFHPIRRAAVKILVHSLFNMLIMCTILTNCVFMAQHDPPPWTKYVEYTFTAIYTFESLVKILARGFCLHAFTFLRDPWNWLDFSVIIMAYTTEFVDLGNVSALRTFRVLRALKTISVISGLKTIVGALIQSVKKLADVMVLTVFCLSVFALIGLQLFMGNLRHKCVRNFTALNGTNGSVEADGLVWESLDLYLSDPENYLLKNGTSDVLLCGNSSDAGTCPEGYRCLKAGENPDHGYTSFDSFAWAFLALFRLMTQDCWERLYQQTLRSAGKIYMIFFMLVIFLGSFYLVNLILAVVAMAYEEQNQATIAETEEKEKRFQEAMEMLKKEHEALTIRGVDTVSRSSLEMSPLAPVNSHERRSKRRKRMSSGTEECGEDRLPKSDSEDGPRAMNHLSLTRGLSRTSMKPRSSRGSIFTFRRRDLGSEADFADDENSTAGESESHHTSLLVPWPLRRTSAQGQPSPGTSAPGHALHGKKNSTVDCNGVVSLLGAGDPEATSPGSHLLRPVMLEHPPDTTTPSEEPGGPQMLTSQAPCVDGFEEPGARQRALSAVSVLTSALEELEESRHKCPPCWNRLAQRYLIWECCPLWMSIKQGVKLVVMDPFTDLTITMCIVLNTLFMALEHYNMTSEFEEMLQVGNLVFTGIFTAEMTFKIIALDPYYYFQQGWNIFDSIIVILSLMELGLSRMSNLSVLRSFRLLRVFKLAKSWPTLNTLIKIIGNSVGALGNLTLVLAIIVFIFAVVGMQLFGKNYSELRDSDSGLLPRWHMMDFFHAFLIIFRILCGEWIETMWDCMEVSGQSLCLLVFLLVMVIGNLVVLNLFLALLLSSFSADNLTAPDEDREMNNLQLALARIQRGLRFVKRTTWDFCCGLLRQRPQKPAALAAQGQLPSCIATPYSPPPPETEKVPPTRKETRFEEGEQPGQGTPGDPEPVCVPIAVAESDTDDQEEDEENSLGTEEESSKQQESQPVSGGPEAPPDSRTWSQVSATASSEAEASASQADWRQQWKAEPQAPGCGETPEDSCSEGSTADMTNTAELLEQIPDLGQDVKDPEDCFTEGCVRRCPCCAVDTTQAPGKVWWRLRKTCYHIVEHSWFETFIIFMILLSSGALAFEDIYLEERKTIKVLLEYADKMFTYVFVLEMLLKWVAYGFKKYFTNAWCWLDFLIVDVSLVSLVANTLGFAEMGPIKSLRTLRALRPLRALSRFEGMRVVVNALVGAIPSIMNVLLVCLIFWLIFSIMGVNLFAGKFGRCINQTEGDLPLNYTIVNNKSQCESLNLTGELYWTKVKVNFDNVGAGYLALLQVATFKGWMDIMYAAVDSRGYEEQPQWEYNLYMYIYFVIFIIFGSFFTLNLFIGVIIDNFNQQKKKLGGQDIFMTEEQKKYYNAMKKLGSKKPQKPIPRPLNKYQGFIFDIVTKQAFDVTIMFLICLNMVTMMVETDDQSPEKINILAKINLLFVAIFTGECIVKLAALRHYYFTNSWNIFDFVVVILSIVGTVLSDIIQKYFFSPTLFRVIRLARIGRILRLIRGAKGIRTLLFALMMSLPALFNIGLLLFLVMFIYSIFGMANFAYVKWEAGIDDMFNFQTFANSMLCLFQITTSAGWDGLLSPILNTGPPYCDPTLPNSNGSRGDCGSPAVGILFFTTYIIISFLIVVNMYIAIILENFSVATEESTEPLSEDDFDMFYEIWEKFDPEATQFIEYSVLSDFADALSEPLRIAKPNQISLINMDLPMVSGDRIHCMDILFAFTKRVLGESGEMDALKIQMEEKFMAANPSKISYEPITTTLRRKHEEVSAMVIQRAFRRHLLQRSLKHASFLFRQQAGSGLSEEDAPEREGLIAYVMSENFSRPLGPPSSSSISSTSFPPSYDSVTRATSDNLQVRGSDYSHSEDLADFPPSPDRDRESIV

NaV1.5 [6] = molecular target: T2, NaV1.5; experiment: Second IonWorks Quattro NaV1.5 screen (GSK, Q2)
[7] = first (lower) of two lines, not labelled low/high
[8] = second (higher) of two lines, not labelled low/high
[9] = Cmax high, calculated from ng/mL and molecular weight
[10] = Cmax high, calculated with PPB and molecular weight
[11] = Cmax low, calculated from ng/mL and molecular weight
[12] = Cmax low, calculated with PPB and molecular weight

Compound	PPB (percent plasma binding) [4]	Cmax FREE ([2]; Cmax high, calculated with PPB)	Cmax FREE [2, 10]	Free plasma concentration ([2]; Cmax low)	Cmax FREE ([2]; Cmax low, calculated with PPB)	Cmax FREE [2, 12]	Cmax TOTAL ([3]; Cmax low)	other results
COCCCOc1cc(C[C@@H](C[C@H](N)[C@@H](O)C[C@H](C(=O)NCC(C)(C)C(N)=O)C(C)C)C(C)C)ccc1OC [ALISKIRIN]								relationship between exposure and QTc in words (COMMENTS) [1]: Lack of relationship between aliskirin exposure and QTcF
NC(=O)C(c1ccccc1)(c1ccccc1)[C@@H]1CCN(CCc2ccc3c(c2)CCO3)C1 [Darifenacin]	98% PPB							Kv4.3 pIC50 (Q) (Kv4.3/KChIP2.2; 0.0 = pIC50 ≤ 0 fitted): 4.9; Cmax FREE [2, 7]: 0.112 ng/mL and 0.2207 nM; Cmax TOTAL [2, 7]: 11.0345 nM; Free plasma concentration [2, 7]: 0.0002207 µM; Cmax FREE [2, 8]: 1.266 ng/mL and 2.495 nM; Cmax TOTAL [2, 8]: 124.729 nM; Free plasma concentration [2, 8]: 0.002495 µM; QT shortening in the TQT study ([1]; range over the three drugs): 2 to 7 ms; Cmax TOTAL [3, 7]: 5.6 ng/mL; Cmax TOTAL [3, 8]: 63.3 ng/mL
Cc1nc(Nc2ncc(C(=O)Nc3c(C)cccc3Cl)s2)cc(N2CCN(CCO)CC2)n1.O [Dasatinib]	96% PPB	10.52 ng/mL	20.790 nM	0.007905 µM	4 ng/mL	7.905 nM	100 ng/mL	Kv4.3 pIC50 (Q) (Kv4.3/KChIP2.2; […]): 3.5; Free plasma concentration ([2]; Cmax high): 0.02079 µM; Cmax TOTAL [2, 9]: 519.742 nM; Cmax TOTAL [2, 11]: 197.621 nM; Cmax TOTAL ([3]; Cmax high): 263 ng/mL
CN(CCOc1ccc(NS(C)(=O)=O)cc1)CCc1ccc(NS(C)(=O)=O)cc1 [Dofetilide]								plasma concentration ([2]; end of the line in nM): 9.5 nM; plasma concentration ([2]; end of the line in ng/mL): 4.195 nM; therapeutic range, lower value ([2]; line in ng/mL): 0.1766 ng/mL; therapeutic range, upper value ([2]; line in ng/mL): 0.8832 ng/mL; total plasma conc ([2]; line in ng/mL): 4.1952 ng/mL; total plasma conc [3]: 9.5 nM
C[C@@H](O)[C@H]1C(=O)N2C(C(=O)O)=C(S[C@@H]3CN[C@H](CNS(N)(=O)=O)C3)[C@H](C)[C@H]12 [Doripenem]	8.1% PPB	41355 ng/mL	98346.2 nM	45.8949 µM	19299 ng/mL	45894.9 nM	21000 ng/mL	Free plasma concentration ([2]; Cmax high): 98.3462 µM; Cmax TOTAL ([3]; Cmax high): 45000 ng/mL; CaV1.2 pIC50 (Q) (CaV1.2): 5.7
COc1c(N2C[C@@H]3CCCN[C@@H]3C2)c(F)cc2c(=O)c(C(=O)O)cn(C3CC3)c12 [Moxifloxacin]	55% PPB			2.745 µM	1257.030 ng/mL		2793.4 ng/mL	
Cc1cn(-c2cc(NC(=O)c3ccc(C)c(Nc4nccc(-c5cccnc5)n4)c3)cc(C(F)(F)F)c2)cn1 [Nilotinib]	98% PPB			0.08386 µM	45.200 ng/mL	83.861 nM	[…]	Cmax TOTAL [2, 11]: 4193.028 nM; NaV1.5 pIC50 (Q) (NaV1.5 [5]): 3.0; NaV1.5 pIC50 (Q2) (NaV1.5 [6]): […]
O=C1c2cccc3c2[C@H](CCC3)CN1[C@@H]1CN2CCC1CC2 [Palonosetron]	62%	2.128 ng/mL	6.393 nM	0.00291 µM	0.9686 ng/mL	2.910 nM	2.549 ng/mL	Free plasma concentration ([2]; Cmax high): 0.006393 µM; Cmax TOTAL [2, 9]: 16.823 nM; Cmax TOTAL [2, 11]: 7.658 nM; TQT study outcome in words (COMMENTS) [1]: Product labeling: no significant effect on any ECG interval; Cmax TOTAL ([3]; Cmax high): 5.6 ng/mL
CCCc1nn(C)c2c(=O)[nH]c(-c3cc(S(=O)(=O)N4CCN(C)CC4)ccc3OCC)nc12 [Sildenafil]	96%	60.76 ng/mL	128.024 nM		7.12 ng/mL	15.0021 nM		Kv4.3 pIC50 (Q) (Kv4.3/KChIP2.2; 0.0 = pIC50 ≤ 0 fitted): 3.3; NaV1.5 pIC50 (Q) (NaV1.5 [5]): 3.3; NaV1.5 pIC50 (Q2) (NaV1.5 [6]): 2.9
O=C(O[C@H]1CN2CCC1CC2)N1CCc2ccccc2[C@@H]1c1ccccc1 [Solifenacin]	98% PPB							
CC[C@@H](c1cccc(O)c1)[C@@H](C)CN(C)C [TAPENTADOL]								TQT study outcome in words (COMMENTS) [1]: 90% Confidence interval; study considered negative
